Bounds are passed on as bounds.

As a reminder, the melting point is the temperature, or range, at which the solid turns liquid. The compound `COc1ccc(Cl)cc1C(=O)NCCC1CCN(S(=O)(=O)NC(=S)NC(C)C)CC1` came in with a melting point of 145 to 147 °C.
To `C=Cc1ccccc1OC(C)C(=O)N1CCCC1` (stereo unspecified) belongs 85 to 86 °C.
In the case of `COC(=O)CCC(=O)c1ccc(-c2ccc(SC)cc2)cc1`, the melting point is 137 to 140 °C.
On to `Cc1ccc(-c2ncn3c2CN(N(C)C)c2ccccc2-3)cc1`, for which the melting point was in the range of 204 to 205 °C.
In the case of `Cc1ccc(S(=O)(=O)N2CC(O)CC2C(=O)O)cc1` (stereo unspecified), the melting point was in the range of 146 to 147 °C.
Under `CN1CC(Cn2ccnc2-c2ccccc2)CC2c3cccc4[nH]cc(c34)CC21` (stereo unspecified) stands 193 to 195 °C; under `COC(=O)c1ccc(OC)cc1C(C)=O`, 48 to 50 °C.
`CC(C)(C)NC(CCOc1cccc2c1CC(=O)N2)OC(=O)Cc1ccccc1` (stereo unspecified) returned a melting point of 112 to 115 °C.
The compound `CCCc1c(C(=O)c2ccc(OS(=O)(=O)c3ccc(C)cc3)cc2)c2ccccn2c1C(C)=O` came in with a melting point of 125 to 126 °C.
In the case of `FC(F)(F)c1cc(CO[C@@H]2CCCN(Cc3nc4ccccc4[nH]3)[C@@H]2c2ccccc2)cc(C(F)(F)F)c1` (relative stereo), the melting point was in the range of 152 to 153 °C.
Under `COc1ccc(N(CCN2CCC(C(=O)c3ccc(F)cc3)CC2)C(=O)c2ccc(C#N)cc2)cc1` stands 136 to 149 °C.
As for `C=C(C(=O)c1cc2c(c(C)c1C)OC(C(=O)O)C2)C(C)C` (stereo unspecified), the melting point turned out to be 97 °C.
`Cc1c(SCCCN2CCOCC2)ccnc1CSc1nc2ccccc2[nH]1` showed a melting point of 149 to 150 °C.
`O=C(Nc1ccncc1)c1c(OCC2CC2)ccc2oc3ccccc3c12` came in with a melting point of 243 to 244 °C.
`Nc1cc(O)c2c(c1)C(=O)c1cccc(O)c1C2=O` returned a melting point of 250 to 252 °C.
For `Cn1cncc1C(O)c1ccc2c(c1)c(-c1cccc(Cl)c1)nc1nnnn12` (stereo unspecified), the melting point was 190 °C.
Turning to `CC(=O)N1c2ccc(-c3ccc(CN(C)C)cc3)cc2C(Nc2ccccc2)CC1C` (stereo unspecified), the melting point turned out to be 90 °C.
The compound `COc1cc(C)c(Cc2cnc(N)nc2N)cc1OC` gave a melting point of 223 to 225 °C.
`c1ccc(CSc2nc3ncccn3n2)cc1`: the melting point lay in the range of 104 to 106 °C.
In the case of `CC(C)(C)c1ccc(N)nn1`, the melting point is 125 to 132 °C.
Under `Cc1cc(-n2ccnc2)c2cccc(OCc3c(Cl)ccc(S(=O)(=O)N4CC[C@@H](O)C4)c3Cl)c2n1` stands 166 °C.
For the compound `COC(=O)N1CCC(CCC(=O)O)CC1`, the melting point was in the range of 88 to 90 °C.
`CCCCCCCCCCCC(=O)NCCCCCC(=O)O` yielded a melting point of 85 to 86 °C.
For `Oc1cc(Br)c2oc(-c3cc(F)c(O)c(F)c3)nc2c1`, the melting point was in the range of 270 to 272 °C.
To `CC(C)n1nc(-c2sc(NC(=O)OC(C)(C)C)nc2-c2ccccc2)ccc1=O` belongs 198 to 199 °C; to `CSCCN1C(=O)c2ccccc2Oc2nc(Cl)ccc21`, 126 to 128 °C; to `OC1CSC(Oc2cccnc2-c2ccc(F)cc2)C(O)C1O` (stereo unspecified), 110 °C.
`OC(=S)c1c(F)cccc1-c1ccccc1` had a melting point of 152 to 156 °C.
In the case of `NC(=O)c1cc2c(Oc3ccc(Cl)cc3)c[nH]c(=O)c2s1`, the melting point is over 250 °C.
For `C=Cc1cncc(-c2cc(NC(=O)Cc3ccc4ccccc4c3)n[nH]2)c1`, the melting point is 218 to 220 °C.
`CC1CCCN1CCCN1CCN(CCN2CCCC2)C1=C(C#N)C#N` (stereo unspecified) returned a melting point of 95 to 96 °C.
The compound `COCCOCCOCC(=O)Nc1c(I)c(N)c(I)c(C(=O)O)c1I` yielded a melting point of 177 to 178 °C.
To `Cc1cccc(Cl)c1-n1nc(C(C)C)c(C#N)c1N` belongs 116 to 118 °C.
In the case of `CCNc1ccc2nnc(-c3ncc([N+](=O)[O-])n3C)n2n1`, the melting point fell in the range of 258 to 263 °C.
`CC(C)(C)OOC(C)(CCC(=O)NNC(=O)c1ccccc1)OOC(C)(C)C` showed a melting point of 147 to 149 °C.
Under `Cc1cc2c(/C=C/C(=O)OCc3ccccc3)cccc2[nH]1` stands 135 to 136 °C; under `CNC(=S)C1(c2cccnc2)OCCCS1` (stereo unspecified), 194 °C.
The compound `NC(=O)N(O)CCNC(=O)c1cccc(S(=O)(=O)c2ccc(Cl)cc2)c1` gave a melting point of 183 to 186 °C.
`Nc1ccc(CN2C(=O)[C@H]3CCC[C@H]3Nc3ccccc32)cc1` (relative stereo) had a melting point of 149 to 150 °C.
To `CCCc1ccc(CCCOc2c(C)cc(-c3nnn(C)n3)cc2C)o1` belongs 38 to 39 °C; to `N#Cc1cc(C(F)(F)F)n(Cc2ccccc2)c1-c1ccc(Cl)cc1`, 104 to 106 °C.
Under `CCCCNC(=O)c1nc2cnn(CC)c2nc1-c1ccccc1` stands 127 to 128 °C; under `COC(=NS(=O)(=O)c1nc(-c2ccccc2C)ns1)C(C)C`, 116 to 118 °C.
Regarding `COc1ccc2c(c1)OC(C(=O)O)C2` (racemic), the melting point is 108 to 110 °C.
The compound `OC(CCc1ccccc1)c1cnc2sc3c(n12)CCCCCC3` (stereo unspecified) returned a melting point of 123 to 124 °C.
`CC(Cl)(Cl)C(NC(=O)c1ccc(Br)cc1)NC(=NC#N)Nc1ccc(Cl)nc1` (stereo unspecified) returned a melting point of 215 to 216 °C.
As to `COc1cc(N)c(C(N)=O)cc1C(=O)N[C@H]1CCN(Cc2ccc(F)cc2)C[C@H]1OC` (relative stereo), the melting point was 244 °C.
In turn, `O=C1Nc2cc(F)ccc2C12COc1cc3c(cc12)CCO3` (stereo unspecified) registered a melting point of 249 to 251 °C.
Under `COC(=O)c1c(C(=O)OC)c(-c2ccc(OC)cc2)c2c3c(ccc2c1OC)OCO3` stands 166 to 167 °C; under `Cc1cnc(C#Cc2ccccc2)s1`, 82 to 83 °C.
In turn, `O=C(C=Cc1ccc(C(F)(F)F)cc1)C=Cc1ccc(C(F)(F)F)cc1` returned a melting point of 148 to 150 °C.
`COc1ccccc1CC(C)NCC(O)c1cccc(Cl)c1` (stereo unspecified): the melting point was in the range of 85 to 87 °C.
For the compound `SCC1SC(CS)SC(CS)S1` (stereo unspecified), the melting point was 42 to 46 °C.
Consider `O=C(O)c1ccc(Oc2ccccc2Oc2ccc(C(=O)O)cc2)cc1`, for which the melting point fell in the range of 255 to 257 °C.
`CC(=O)NCC(=O)NCC(=O)N1CC1C#N` (stereo unspecified) had a melting point of 70 to 76 °C.
Under `CC(C)Cn1c(=O)c(-c2c(Cl)cccc2Cl)cc2cnc(N)nc21` stands 193 to 195 °C; under `O=C(Nc1ccncc1)c1ccc(C2=NCCN2)cc1`, over 250 °C; under `CC(C)(C)OC(=O)c1ccc(NC#N)cc1`, 94 to 95 °C.
`CC(O)(c1ccc(C#N)cc1)c1cncs1` (stereo unspecified) registered a melting point of 162 to 164 °C.
For `C[C@@H](c1ccc(F)cc1)N1CCN(c2cc(Oc3cc(F)cc4[nH]c(=O)c(N)nc34)ncn2)CC1`, the melting point came out at 288 °C.
On to `O=C(O)C1=Cc2cc(Cl)cc(-c3cccs3)c2OC1C(F)(F)F` (stereo unspecified), for which the melting point lay in the range of 258 to 259 °C.
To `N=C(N)NCCc1ccc(OCCC(c2ccc(Cl)cc2)(c2ccc(Cl)cc2)c2ccc(Cl)cc2)cc1` belongs 146 to 150 °C; to `CC1=NN=C(c2ccc3ccccc3n2)c2cc3oc(=O)[nH]c3cc2C1`, 304 to 306 °C.
Consider `CCOC(=O)CN(CC(=O)OCC)C(=O)C(=O)c1ccc(OCCCCCCCCCCCCOc2ccccc2)cc1`, for which the melting point lay within 55 to 56 °C.
For `O=C(O)c1cc(Cl)nn1-c1ncccc1Cl`, the melting point was in the range of 198 to 199 °C.
Compound `CC1=Nc2c(nc(N)[nH]c2=O)NC1C` (stereo unspecified) registered a melting point of over 300 °C.
The compound `N#CC1Cc2ccc(N)cc2C1` (stereo unspecified) gave a melting point of 73 to 76 °C.
For the compound `Cc1cc(OCCCNCCC(N)=O)ccc1Cc1c(OC2OC(CO)C(O)C(O)C2O)n[nH]c1C(C)C` (stereo unspecified), the melting point was in the range of 191 to 193 °C.
Compound `CCCCCC(=O)Nc1nc2cc(Cl)ccc2nc1NC(=O)CC` displayed a melting point of 158 to 160 °C.
Turning to `N#CCc1ccc(C(=O)c2ccc(Cl)cc2)[nH]1`, the melting point lay within 203 to 205 °C.
As for `CC1(C)CC(=NO)c2cc(Br)ccc21`, the melting point lay within 115 to 117 °C.
Compound `c1ccc(COc2ccc(Nc3ncnc4ncccc34)cc2)cc1` returned a melting point of 235 to 237 °C.
In turn, `COC(=O)c1ccccc1-n1c(CCl)nc2ccc(C(F)(F)F)cc2c1=O` returned a melting point of 169 to 170 °C.
As for `CCOc1cccc(NC(=O)Nc2ccc3c(c2)CCN(C(=O)Nc2ccc(OCCO)cc2Cl)C3)c1`, the melting point lay in the range of 148 to 150 °C.
For the compound `COc1cc(CC(=O)c2c(O)c3cccnc3n(-c3ccccc3)c2=O)cc(OC)c1`, the melting point fell in the range of 170 to 171 °C.
For `Oc1ncnc2c1c(Nc1cccnc1)nn2Cc1ccccc1`, the melting point was 150 to 160 °C.
`CC(C)(C)OC(=O)c1c(N)sc2c1CCOC2CN1C(=O)c2ccccc2C1=O` (stereo unspecified) returned a melting point of 227 to 230 °C.
`CS(=O)(=O)NCCNc1ccc([N+](=O)[O-])cc1` showed a melting point of 154 °C.
Under `O=c1c2ccc(Cl)cc2[nH]c2c(O)nn(Cc3cccc(-c4nnn[nH]4)c3)c(=O)c12` stands over 275 °C.
`O=C(Nc1ccc2ccc(Cl)nc2n1)c1ccsc1`: the melting point worked out at 254 °C.
`COC(=O)[C@]1(F)[C@H]2[C@H](O)CC(=O)[C@H]21` came in with a melting point of 61 to 62 °C.
Regarding `CCN(C(=O)c1ccc(Cl)c(Cl)c1)c1ccc(C)cc1CCC(=O)O`, the melting point is 107 to 109 °C.
Under `COc1cc(C2C3=C(COC3=O)N(C)c3cc4c(cc32)OCO4)cc(OC)c1OC` (stereo unspecified) stands 226 °C; under `O[C@@H]1CN=C(c2ccccc2)O[C@H]1c1ccccc1` (racemic), 135 °C.
For the compound `OC(CCN1CC=C(c2ccc(Cl)cc2)CC1)c1ccc(Cl)cc1Cl` (stereo unspecified), the melting point fell in the range of 96 to 98 °C.
For the compound `CC(C)N(c1ccc(C(=O)Oc2ccccc2)c(Cl)c1)S(=O)(=O)c1ccccc1`, the melting point amounted to 120 °C.
Compound `CCOCc1nc(C(=O)OCC)c(C(=O)OCC)[nH]1` showed a melting point of 60 to 61 °C.
Compound `C#CCc1c(O)nc(C)nc1O` came in with a melting point of over 300 °C.
To `CSc1nc(=O)[nH]cc1Cl` belongs 254 °C.
With `N#Cc1cccc(-c2nc3sccn3c2-c2ccnc(N[C@@H]3CCCN(S(=O)(=O)c4ccc(Cl)cc4)C3)n2)c1`, the melting point lay in the range of 144 to 146 °C.
Compound `CC(=Cc1ccc(O)c(Br)c1)[N+](=O)[O-]` gave a melting point of 122 to 124 °C.
